Laboratory results reported in ChEMBL document CHEMBL5113503, “Synthesis and biological evaluation of 4-(4-aminophenyl)-6-methylisoxazolo[3,4-b] pyridin-3-amine covalent inhibitors as potential agents for the treatment of acute myeloid leukemia” (Bioorg Med Chem, 2022).

Legend:
MOLM-13 = assay: Antiproliferative activity against human MOLM-13 cells harboring FLT3-ITD mutant assessed as cell growth inhibition measured after 72 hrs by CCK8 assay; details: MOLM-13, 72 h
MV4-11 [1] = assay: Antiproliferative activity against human MV4-11 cells harboring FLT3-ITD mutant assessed as cell growth inhibition measured after 72 hrs by CCK8 assay; details: MV4-11, 72 h
[2] = Cytotoxicity against HUVEC cells assessed as cell growth inhibition measured after 72 hrs by CCK8 assay; format: toxicity, cell-based; details: human
MV4-11 [3] = assay: Induction of apoptosis in human MV4-11 cells assessed as necrotic cells at 2.5 uM measured after 48 hrs by Annexin V-FITC/PI double staining based flow cytometric analysis (reference value: 5.67 %); format: functional
MV4-11 [4] = assay: Induction of apoptosis in human MV4-11 cells assessed as viable cells at 0.1 uM measured after 48 hrs by Annexin V-FITC/PI double staining based flow cytometric analysis (reference value: 80.26 %); format: functional; details: read-out: Activity
[5] = target: T1, Signal transducer and activator of transcription 5A (Homo sapiens) (UniProt P42229); assay: Inhibition of STAT5 phosphorylation in human MV4-11 cells incubated for 12 hrs by Western blot analysis; format: cell-based; details: dose 0.1-2.5 µM, DDE = dose-dependent effect
T1 sequence (whole entry): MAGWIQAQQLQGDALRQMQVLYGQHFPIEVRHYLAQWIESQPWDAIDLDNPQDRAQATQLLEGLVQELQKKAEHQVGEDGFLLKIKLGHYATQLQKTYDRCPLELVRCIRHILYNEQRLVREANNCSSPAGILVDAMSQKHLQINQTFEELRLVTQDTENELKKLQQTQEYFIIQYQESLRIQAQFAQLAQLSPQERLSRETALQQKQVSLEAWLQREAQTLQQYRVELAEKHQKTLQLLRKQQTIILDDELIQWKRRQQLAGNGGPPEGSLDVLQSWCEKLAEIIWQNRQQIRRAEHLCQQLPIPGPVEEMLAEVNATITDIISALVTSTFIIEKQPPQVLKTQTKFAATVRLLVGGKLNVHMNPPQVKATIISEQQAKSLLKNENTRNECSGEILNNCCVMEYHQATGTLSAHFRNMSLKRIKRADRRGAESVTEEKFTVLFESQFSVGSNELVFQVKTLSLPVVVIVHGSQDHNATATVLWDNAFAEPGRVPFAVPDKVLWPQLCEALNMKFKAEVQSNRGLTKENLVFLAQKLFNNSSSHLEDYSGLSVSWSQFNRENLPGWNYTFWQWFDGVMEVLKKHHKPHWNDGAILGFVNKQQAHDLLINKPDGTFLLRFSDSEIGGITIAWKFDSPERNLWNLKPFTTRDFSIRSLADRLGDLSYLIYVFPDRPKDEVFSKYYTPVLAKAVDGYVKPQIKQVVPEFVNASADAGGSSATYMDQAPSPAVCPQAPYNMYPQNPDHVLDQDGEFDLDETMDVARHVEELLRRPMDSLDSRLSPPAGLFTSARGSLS

IC50 (MOLM-13): 507 nM
IC50 (MV4-11 [1]): 325 nM
inhibition [5]: Dde
Structure (SMILES): C=CC(=O)Nc1ccc(NC(=O)Nc2ccc(-c3cc(C)nc4noc(N)c34)cc2)cc1
IC50 at 72 h [2]: > 10000 nM
Activity (MV4-11 [3]): 9.56%
viability at 0.1 µM (MV4-11 [4]): 81.8%
